# According to ChEMBL document CHEMBL1133399, “2-(Alkylthio)pyrimidin-4-ones as novel, reversible inhibitors of lipoprotein-associated phospholipase A2” (Bioorg Med Chem Lett, 2000):
# Molecular target: T1, Platelet-activating factor acetylhydrolase (Homo sapiens) (UniProt Q13093)
# T1 sequence (whole entry): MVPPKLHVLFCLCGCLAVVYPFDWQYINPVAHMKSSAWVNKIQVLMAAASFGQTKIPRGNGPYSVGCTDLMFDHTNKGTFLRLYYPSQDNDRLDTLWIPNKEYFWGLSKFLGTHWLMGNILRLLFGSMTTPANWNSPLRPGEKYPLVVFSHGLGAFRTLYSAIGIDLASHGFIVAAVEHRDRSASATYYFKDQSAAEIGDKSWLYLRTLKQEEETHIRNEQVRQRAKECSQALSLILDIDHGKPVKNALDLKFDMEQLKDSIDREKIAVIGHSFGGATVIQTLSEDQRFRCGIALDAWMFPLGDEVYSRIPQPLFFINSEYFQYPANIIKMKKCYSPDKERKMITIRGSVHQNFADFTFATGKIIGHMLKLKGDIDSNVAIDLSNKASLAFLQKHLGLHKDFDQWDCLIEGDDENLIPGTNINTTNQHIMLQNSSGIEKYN
# Experiment: The compound was tested for inhibition of Lipoprotein-associated phospholipase A2 (Lp-PLA2) at 10 uM
row,SMILES,inhibition
1,O=C(NCCCCCCSc1ncc(Cc2cccnc2)c(O)n1)c1ccc(Cl)cc1,41%
2,Cc1nc(SCCCCCCCC(=O)c2ccc(Cl)cc2)nc(O)c1Cc1cccnc1,40%

# More lines, now with the values ahead:
row,inhibition,SMILES
1,63%,Oc1nc(SCCCCCCCCc2ccccc2)ncc1Cc1ccoc1
2,0%,Oc1nc(SCCCCCCCCc2ccccc2)ncc1Cc1ccccc1
3,0%,O=C(CSc1ncc(Cc2cccnc2)c(O)n1)c1ccccc1
4,38%,Oc1nc(SCCCCCCCCc2ccccc2)ncc1Cc1ccccn1

# Molecular target: T2, Platelet-activating factor acetylhydrolase (Homo sapiens, UniProt Q13093)
# T2 sequence (Q13093 whole entry): T1 sequence (whole entry)
# Experiment: The compound was tested for inhibition of Lipoprotein-associated phospholipase A2 (Lp-PLA2)
row,Ki,SMILES
1,41 nM,Cn1ccc(Cc2cnc(SCCCCCCCC(=O)c3ccc(Cl)cc3)[nH]c2=O)cc1=O

# Molecular target: T2, Platelet-activating factor acetylhydrolase
# Experiment: Inhibition of lipoprotein-associated phospholipase A2 (Lp-PLA2)
row,SMILES,IC50
1,O=C(CCCCCCCCSc1ncc(Cc2cccnc2)c(=O)[nH]1)c1ccc(Cl)cc1,650 nM
2,O=S(=O)(CCCCCCCSc1ncc(Cc2cccnc2)c(O)n1)c1ccc(Cl)cc1,12600 nM
3,O=c1[nH]c(SCc2ccc(Cl)cc2)ncc1Cc1cccnc1,4400 nM
4,Oc1nc(SCc2ccc(F)cc2)ncc1Cc1cncnc1,850 nM
5,O=c1[nH]c(SCc2ccccc2)ncc1Cc1ccncc1,4400 nM
6,O=C(CCCCCCCSc1ncc(Cc2cnccn2)c(=O)[nH]1)c1ccc(Cl)cc1,640 nM
7,O=C(CCCCCCCSc1ncc(Cc2cccnc2)c(O)n1)c1ccc(Cl)cc1,110 nM
8,O=C(CCCCCCCSc1ncc(Cc2cncnc2)c(O)n1)c1ccc(Cl)cc1,54 nM
9,Cn1ccc(Cc2cnc(SCCCCCCCC(=O)c3ccc(Cl)cc3)[nH]c2=O)cc1=O,72 nM
10,O=C(CCCCCCCSc1ncc(Cc2cccnc2)c(O)n1)c1cccs1,1300 nM
11,O=c1[nH]c(SCCCCCCCCc2cccc(Cl)c2)ncc1Cc1cccnc1,850 nM
12,O=C(CCCCCCCOc1ncc(Cc2cccnc2)c(=O)[nH]1)c1ccc(Cl)cc1,64 nM
13,[O-][S+](CCCCCCCSc1ncc(Cc2cccnc2)c(O)n1)c1ccc(Cl)cc1 (configuration not stated),17000 nM

# Results, then the compound that gave them:
row,IC50,SMILES
1,200 nM,Oc1nc(SCCCCCCCCc2ccc(Cl)cc2)ncc1Cc1cccnc1
2,2900 nM,CC(=O)c1ccc(CCCCCCCCSc2ncc(Cc3cccnc3)c(O)n2)cc1
3,630 nM,O=c1[nH]c(SCCCCCCCCc2ccccc2)ncc1Cc1ccncc1
4,1100 nM,Oc1nc(SCc2ccccc2)ncc1Cc1cncnc1
5,780 nM,CCCCn1ccc(Cc2cnc(SCCCCCCCCc3ccccc3)nc2O)cc1=O
6,250 nM,Oc1nc(SCCCCCCCSc2ccc(Cl)cc2)ncc1Cc1cccnc1
7,1100 nM,O=c1[nH]c(SCc2ccccc2)ncc1Cc1cccnc1
8,1100 nM,COc1ccc(CCCCCCCCSc2ncc(Cc3ccc(C)nc3)c(O)n2)cc1
9,1000 nM,COc1cc(Cc2cnc(SCCCCCCCCc3ccccc3)nc2O)ccn1
10,2300 nM,O=c1[nH]c(SCCCCCCc2ccccc2)ncc1Cc1cccnc1
11,230 nM,Oc1nc(SCCCCCCCOc2ccc(Cl)cc2)ncc1Cc1cccnc1
12,430 nM,Oc1nc(SCCCCCCCCCc2ccccc2)ncc1Cc1cccnc1
13,12000 nM,Cc1ccc(Cc2cnc(OCCCCc3ccccc3)nc2O)cn1
14,1200 nM,Cc1ccc(Cc2cnc(SCCCCCCOCc3ccc(Cl)cc3)[nH]c2=O)cn1
15,1000 nM,Cc1ccc(Cc2cnc(SCCCCCCCc3ccccc3)nc2O)cn1
16,990 nM,Cc1ccc(Cc2cnc(SCCCCCCCCCc3ccccc3)nc2O)cn1

# Molecular target: T1, Platelet-activating factor acetylhydrolase (Homo sapiens)
# Experiment: The compound was tested for inhibition of Lipoprotein-associated phospholipase A2 (Lp-PLA2) at 30 uM
row,inhibition,SMILES
1,10%,Cc1ccc(Cc2cnc(SCCCc3ccccc3)nc2O)cn1
